Assay results: patent US10124059B2, “Dimeric scaffold peptides comprising HIV-1 GP120 and GP41 epitopes” (priority 2011, dated 2018)
Ends that are not written are not given here.

Tests used:
[1] = test system: New Zealand White female rabbits; test: Rabbit immunizations with BI400-B vaccine, direct ELISA of sera; type: in vivo
Experimental: New Zealand White female rabbits (n=3) was immunized intradermally at weeks 0, 2 & 6 with 1 ml of BI400-B vaccine consisting of 500 μg BI400-B in 50% V/V Freund's adjuvant (i.e. Complete Freund's adjuvant used for priming, followed by boostings with Incomplete Freund's adjuvant). Individual blood serum was isolated for ELISA.
50-100 μl of BI400-B (pre-incubated in Coating buffer—0.05M Na2CO3 pH9.6; denoted CB—in cold at 16 μg/ml for each peptide 1-3 days prior to coating) or just CB (background control) is used for coating wells in microtiter plates at 4° C. overnight. The microtiter plates are then washed 3× with washing buffer (PBS+1% v/v Triton-X100; denoted WB), followed by 2 h blocking at room temperature (RT) with 200 μl/well of blocking buffer (PBS+1% w/v BSA). Plates are then washed 3× with WB, followed by 1 h incubation at 37° C. with 50-70 ul/well of added human (or rabbit) sera (serial dilutions ranging from 1:1-1:250 in dilution buffer (PBS+1% v/v Triton-X100+1% w/v BSA; denoted DB)). Plates are then washed 6× with WB, followed by 1 h incubation at RT with 70 μl/well of Alkaline Phosphatase-conjugated Protein G (3 μg/ml in DB; Calbiochem 539305). […] Plates are finally quenched by adding 100 μl/well of Quench solution (0.1M TRIS+0.1M EDTA+0.5M NaOH+0.01% w/v NaN3; pH14), followed by ELISA reader (ASYS UVM 340) at 550 nm.

BALB/c mice = test: Serum IgG ELISA after vaccination of BALB/c mice; type: in vivo
Experimental: 100 μl of antigen as indicated (pre-incubated in Coating buffer—0.05M Na2CO3 pH9.6; denoted CB—in cold at 8 μg/ml 1-3 days) or just CB (background control) was used for coating wells in microtiter plates at 4° C. The microtiter plates are then washed 3× with washing buffer (PBS+1% v/v Triton-X100; denoted WB), followed by 2 h blocking at room temperature (RT) with 200 μl/well of blocking buffer (PBS+1% w/v BSA). Plates are then washed 3× with WB, followed by 1 h incubation at 37° C. with 50-70 ul/well of added human (or rabbit or sheep) sera (serial dilutions ranging from 1:5-1:250 in dilution buffer (PBS+1% v/v Triton-X100+1% w/v BSA; denoted DB)). […] Plates are finally quenched by adding 100 μl/well of Quench solution (0.1M TRIS+0.1M EDTA+0.5M NaOH+0.01% w/v NaN3; pH14), followed by a measurement with a ELISA reader (ASYS UVM 340) at 550 nm. […]

sheep = test: Serum IgG ELISA after vaccination of sheep; type: in vivo; conditions: for Dilution of serum three times background IgG response directed against BI100-cg2 antigen: 500 μg peptide in PBS; for Immune response in vaccinated sheep (in words): by itself or with two different standard adjuvants
Experimental: 100 μl of antigen as indicated (pre-incubated in Coating buffer—0.05M Na2CO3 pH9.6; denoted CB—in cold at 8 μg/ml 1-3 days) or just CB (background control) was used for coating wells in microtiter plates at 4° C. The microtiter plates are then washed 3× with washing buffer (PBS+1% v/v Triton-X100; denoted WB), followed by 2 h blocking at room temperature (RT) with 200 μl/well of blocking buffer (PBS+1% w/v BSA). Plates are then washed 3× with WB, followed by 1 h incubation at 37° C. with 50-70 ul/well of added human (or rabbit or sheep) sera (serial dilutions ranging from 1:5-1:250 in dilution buffer (PBS+1% v/v Triton-X100+1% w/v BSA; denoted DB)). Plates are then washed 6× with WB, followed by 1 h incubation at RT with 70 μl/well of Alkaline Phosphatase-conjugated Protein G (3 μg/ml in DB; Calbiochem 539305) or goat anti-mouse IgG biotin (1 μg/ml, Southern Biotech, 1030-08. In case of the goat anti-mouse IgG biotin, the plates were washed one extra step as described, before addition of 100 μl Streptavidin-Alkaline-Phosphatase (1 μg/ml, Sigma Aldrich, S289) and incubated 1 hour at RT. Plates are then washed 6× with WB, followed by 10-60 min incubation at room temperature with 100 μl/well of 0.3% w/v of Phenophtalein monophosphate (Sigma P-5758). Plates are finally quenched by adding 100 μl/well of Quench solution (0.1M TRIS+0.1M EDTA+0.5M NaOH+0.01% w/v NaN3; pH14), followed by a measurement with a ELISA reader (ASYS UVM 340) at 550 nm. The strength of the sera, i.e. the magnitude of the humoral immune response, is then reported as the dilution of sera that result in the described Optical Density (OD) value, or the OD value at the indicated dilution of sera.
The vaccination of sheep was done with 500 μg of peptide in PBS with the following adjuvants: ISA51 (vaccination week 1, 2, 3, 4, serum from week 6) and Freunds Adjuvant (vaccination weeks 1, 12, 26, serum from week 28). […] This indicate that the constructs can be combined with different adjuvants and induce an IgG response, a signal that an immunological memory has been elicited in sheep.

human PBMC = test: Influenza specific M2e response by ELISPOT assay (B cell response in stimulated PBMC); type: cell-based
[2] = Freunds Adjuvant, vaccination weeks 1, 12, 26, serum from week 28
[3] = ISA51, vaccination week 1, 2, 3, 4, serum from week 6

GAKRRVVGGCGGAKRRVVQREKRAGEREKRA (SEQ ID NO: 121) | GKGGIEEEGGRDRDRGGEQDRDR (SEQ ID NO: 122) (thioether (positions not given here); not fully specified (bridges)) [BI400-B, peptides linked via Cys and Lys residues (thioether)]
Character of antibodies generated in animal models (in words) ([1]; animal models): comparable with antibodies elicited in natural HIV infection | Antibody response after immunization (in words) ([1]; rabbits, intradermal 500 μg in Freund's adjuvant at weeks 0, 2 & 6): elicit an efficient antibody response

RRGNWAKVLKNWAKVI (SEQ ID NO: 130) | RRGLLADARVGCGSGADRVCS (SEQ ID NO: 131) (linker (positions not given here) via sulpho‑SMCC; also: sulpho-SMCC linker between Lys and Cys, places not given here) [BI350-1mod1, lysine of first peptide linked to cysteine of second peptide by a sulpho-SMCC linker]
Immune response in vaccinated mice (in words) (BALB/c mice; IgG specific): induced a specific immune response | Serum IgG response (OD) directed against vaccine antigen, Mean (n = 6) (BALB/c mice; s.c. 100 μg peptide + Alhydrogel at weeks 1, 3, 7, serum from week 9): 0.26 OD

[RR][SL(Nle)TDIETP][GCG][IDTPIR][G][TPIBQDWG] [BI100-CG]
Dilution of serum three times background IgG response directed against BI100-cg2 antigen (sheep; [2]): 11000 | Dilution of serum three times background IgG response directed against BI100-cg2 antigen (sheep; [3]): 125 | Dilution of serum three times background IgG response directed against BI100-cg2 antigen (sheep; adjuvant None): 25 | Immune response in vaccinated sheep (in words) (sheep): induced an immune response

[R][SLZTDIETP][Dpr(Aoa)][IDTPIR][G][TPIBQDWG] | [RR][IDTPIR][GG][TPI(Har)QEW][Dpr(Ser)][SLZTDIETPG] [BI150-2mod]
IgG specific B cell response in human PBMC (in words) (human PBMC; IgG): recognised by human memory cells | IgM B cell proliferation in human PBMC (in words) (human PBMC; IgM): able to induce proliferation of IgM B cells

[WWGC][TDIET][CG][IDTPIR][G][TPIBQDWG] [BI100CGcyc]
Dilution of serum three times background IgG response directed against BI100-cg2 antigen (sheep; [2]): 125 | Dilution of serum three times background IgG response directed against BI100-cg2 antigen (sheep; [3]): 25 | Dilution of serum three times background IgG response directed against BI100-cg2 antigen (sheep; adjuvant None): 25 | Immune response in vaccinated sheep (in words) (sheep): induced an immune response
